Data: publication PMC8333425, “Discovery of a dual Ras and ARF6 inhibitor from a GPCR endocytosis screen” (Nature Communications, 2021)

Legend:
Assay in all cases: KINOMEscan kinase binding assay
[1] = biological target: T1, 384 kinases from the human genome (Homo sapiens, UniProt O14578); settings: kinase CIT (Entrez CIT)
T1 construct: purchased Eurofin/DiscoverX
Procedure, shortened: (§1)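 A panel of 384 human kinases was profiled by KINOMEscan binding in the presence of 10 µM compound. Kinase–ligand binding was given as percent of DMSO control, averaged from duplicates in a single run, with an S(10) selectivity score.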

[2] = biological target: T2, 384 kinases from the human genome (Homo sapiens, UniProt O14730); settings: kinase RIOK3 (Entrez RIOK3)
T2 construct: purchased Eurofin/DiscoverX
Procedure, shortened: as §1

[3] = biological target: T3, 384 kinases from the human genome (Homo sapiens, UniProt P00519); settings: kinase ABL1-phosphorylated (Entrez ABL1)
T3 construct: purchased Eurofin/DiscoverX
Procedure, shortened: as §1

[4] = biological target: T4, 384 kinases from the human genome (Homo sapiens, UniProt P04049); settings: kinase RAF1 (Entrez RAF1)
T4 construct: purchased Eurofin/DiscoverX
Procedure, shortened: as §1

[5] = biological target: T5, 384 kinases from the human genome (Homo sapiens, UniProt P04626); settings: kinase ERBB2 (Entrez ERBB2)
T5 construct: purchased Eurofin/DiscoverX
Procedure, shortened: as §1

[6] = biological target: T6, 384 kinases from the human genome (Homo sapiens, UniProt P04629); settings: kinase TRKA (Entrez NTRK1)
T6 construct: purchased Eurofin/DiscoverX
Procedure, shortened: as §1

[7] = biological target: T7, 384 kinases from the human genome (Homo sapiens, UniProt P15735); settings: kinase PHKG2 (Entrez PHKG2)
T7 construct: purchased Eurofin/DiscoverX
Procedure, shortened: as §1

[8] = biological target: T8, 384 kinases from the human genome (Homo sapiens, UniProt P16591); settings: kinase FER (Entrez FER)
T8 construct: purchased Eurofin/DiscoverX
Procedure, shortened: as §1

[9] = biological target: T9, 384 kinases from the human genome (Homo sapiens, UniProt P29322); settings: kinase EPHA8 (Entrez EPHA8)
T9 construct: purchased Eurofin/DiscoverX
Procedure, shortened: as §1

[10] = biological target: T10, 384 kinases from the human genome (Homo sapiens, UniProt P35626); settings: kinase GRK3 (Entrez ADRBK2)
T10 construct: purchased Eurofin/DiscoverX
Procedure, shortened: as §1

[11] = biological target: T11, 384 kinases from the human genome (Homo sapiens, UniProt P41240); settings: kinase CSK (Entrez CSK)
T11 construct: purchased Eurofin/DiscoverX
Procedure, shortened: as §1

[12] = biological target: T12, 384 kinases from the human genome (Homo sapiens, UniProt P45983); settings: kinase JNK1 (Entrez MAPK8)
T12 construct: purchased Eurofin/DiscoverX
Procedure, shortened: as §1

[13] = biological target: T13, 384 kinases from the human genome (Homo sapiens, UniProt P51617); settings: kinase IRAK1 (Entrez IRAK1)
T13 construct: purchased Eurofin/DiscoverX
Procedure, shortened: as §1

[14] = biological target: T14, 384 kinases from the human genome (Homo sapiens, UniProt P52564); settings: kinase MEK6 (Entrez MAP2K6)
T14 construct: purchased Eurofin/DiscoverX
Procedure, shortened: as §1

[15] = biological target: T15, 384 kinases from the human genome (Homo sapiens, UniProt P54753); settings: kinase EPHB3 (Entrez EPHB3)
T15 construct: purchased Eurofin/DiscoverX
Procedure, shortened: as §1

[16] = biological target: T16, 384 kinases from the human genome (Homo sapiens, UniProt P54762); settings: kinase EPHB1 (Entrez EPHB1)
T16 construct: purchased Eurofin/DiscoverX
Procedure, shortened: as §1

[17] = biological target: T17, 384 kinases from the human genome (Homo sapiens, UniProt P78368); settings: kinase CSNK1G2 (Entrez CSNK1G2)
T17 construct: purchased Eurofin/DiscoverX
Procedure, shortened: as §1

[18] = biological target: T18, 384 kinases from the human genome (Homo sapiens, UniProt Q13177); settings: kinase PAK2 (Entrez PAK2)
T18 construct: purchased Eurofin/DiscoverX
Procedure, shortened: as §1

[19] = biological target: T19, 384 kinases from the human genome (Homo sapiens, UniProt Q14289); settings: kinase PYK2 (Entrez PTK2B)
T19 construct: purchased Eurofin/DiscoverX
Procedure, shortened: as §1

[20] = biological target: T20, 384 kinases from the human genome (Homo sapiens, UniProt Q15303); settings: kinase ERBB4 (Entrez ERBB4)
T20 construct: purchased Eurofin/DiscoverX
Procedure, shortened: as §1

[21] = biological target: T21, 384 kinases from the human genome (Homo sapiens, UniProt Q59H18); settings: kinase TNNI3K (Entrez TNNI3K)
T21 construct: purchased Eurofin/DiscoverX
Procedure, shortened: as §1

[22] = biological target: T22, 384 kinases from the human genome (Homo sapiens, UniProt Q8IVH8); settings: kinase MAP4K3 (Entrez MAP4K3)
T22 construct: purchased Eurofin/DiscoverX
Procedure, shortened: as §1

[23] = biological target: T23, 384 kinases from the human genome (Homo sapiens, UniProt Q8IYT8); settings: kinase ULK2 (Entrez ULK2)
T23 construct: purchased Eurofin/DiscoverX
Procedure, shortened: as §1

[24] = biological target: T24, 384 kinases from the human genome (Homo sapiens, UniProt Q8TF76); settings: kinase HASPIN (Entrez GSG2)
T24 construct: purchased Eurofin/DiscoverX
Procedure, shortened: as §1

[25] = biological target: T25, 384 kinases from the human genome (Homo sapiens, UniProt Q9NQU5); settings: kinase PAK6 (Entrez PAK6)
T25 construct: purchased Eurofin/DiscoverX
Procedure, shortened: as §1

[26] = biological target: T26, 384 kinases from the human genome (Homo sapiens, UniProt Q9UKI8); settings: kinase TLK1 (Entrez TLK1)
T26 construct: purchased Eurofin/DiscoverX
Procedure, shortened: as §1

T23 sequence (Q8IYT8 whole entry): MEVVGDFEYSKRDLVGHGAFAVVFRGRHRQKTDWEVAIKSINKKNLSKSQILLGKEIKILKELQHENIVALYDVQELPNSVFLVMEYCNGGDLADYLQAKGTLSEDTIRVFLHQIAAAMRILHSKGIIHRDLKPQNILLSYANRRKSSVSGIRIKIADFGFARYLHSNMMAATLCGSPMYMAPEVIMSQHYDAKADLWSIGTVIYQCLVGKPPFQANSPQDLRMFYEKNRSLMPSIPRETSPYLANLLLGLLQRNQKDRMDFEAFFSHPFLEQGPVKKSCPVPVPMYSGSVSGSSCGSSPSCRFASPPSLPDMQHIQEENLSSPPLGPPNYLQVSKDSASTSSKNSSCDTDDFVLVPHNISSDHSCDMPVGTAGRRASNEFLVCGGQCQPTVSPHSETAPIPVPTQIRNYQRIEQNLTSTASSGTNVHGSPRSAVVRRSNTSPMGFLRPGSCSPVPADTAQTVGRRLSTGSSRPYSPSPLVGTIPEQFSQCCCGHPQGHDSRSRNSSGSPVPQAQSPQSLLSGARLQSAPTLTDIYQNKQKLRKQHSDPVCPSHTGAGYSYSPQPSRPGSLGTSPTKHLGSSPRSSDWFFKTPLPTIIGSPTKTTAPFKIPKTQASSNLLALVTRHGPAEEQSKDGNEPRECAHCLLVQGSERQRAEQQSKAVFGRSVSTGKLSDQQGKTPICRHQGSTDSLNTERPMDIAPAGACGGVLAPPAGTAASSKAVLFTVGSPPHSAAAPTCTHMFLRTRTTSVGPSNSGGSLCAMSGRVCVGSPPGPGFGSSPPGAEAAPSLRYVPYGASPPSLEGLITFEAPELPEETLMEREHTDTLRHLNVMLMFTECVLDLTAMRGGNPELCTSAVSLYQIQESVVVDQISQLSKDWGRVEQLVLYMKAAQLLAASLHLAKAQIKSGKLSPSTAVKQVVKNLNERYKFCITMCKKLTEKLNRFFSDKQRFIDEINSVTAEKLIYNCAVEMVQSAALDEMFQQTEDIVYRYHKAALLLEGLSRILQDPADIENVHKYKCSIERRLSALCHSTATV
T6 sequence (P04629 33-796): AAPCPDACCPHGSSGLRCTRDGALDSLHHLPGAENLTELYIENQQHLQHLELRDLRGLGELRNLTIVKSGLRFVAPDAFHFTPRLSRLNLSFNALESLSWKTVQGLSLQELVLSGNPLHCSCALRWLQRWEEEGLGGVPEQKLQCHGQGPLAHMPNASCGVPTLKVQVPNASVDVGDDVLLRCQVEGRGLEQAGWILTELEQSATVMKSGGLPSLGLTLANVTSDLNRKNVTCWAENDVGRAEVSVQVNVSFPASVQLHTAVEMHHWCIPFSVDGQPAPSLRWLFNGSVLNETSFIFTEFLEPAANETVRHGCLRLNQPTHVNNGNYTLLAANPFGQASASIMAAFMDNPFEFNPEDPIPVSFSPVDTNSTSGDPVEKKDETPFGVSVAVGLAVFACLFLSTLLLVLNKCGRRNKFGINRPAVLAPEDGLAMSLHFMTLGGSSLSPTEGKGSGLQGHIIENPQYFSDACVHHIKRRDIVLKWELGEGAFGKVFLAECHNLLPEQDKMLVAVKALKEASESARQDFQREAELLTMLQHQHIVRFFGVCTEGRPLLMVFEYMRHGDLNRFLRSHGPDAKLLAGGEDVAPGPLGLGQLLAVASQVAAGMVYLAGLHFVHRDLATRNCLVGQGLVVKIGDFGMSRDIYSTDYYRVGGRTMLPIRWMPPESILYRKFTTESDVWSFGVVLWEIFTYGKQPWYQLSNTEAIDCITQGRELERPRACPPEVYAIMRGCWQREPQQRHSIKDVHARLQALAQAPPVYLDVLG
T10 sequence (P35626 whole entry): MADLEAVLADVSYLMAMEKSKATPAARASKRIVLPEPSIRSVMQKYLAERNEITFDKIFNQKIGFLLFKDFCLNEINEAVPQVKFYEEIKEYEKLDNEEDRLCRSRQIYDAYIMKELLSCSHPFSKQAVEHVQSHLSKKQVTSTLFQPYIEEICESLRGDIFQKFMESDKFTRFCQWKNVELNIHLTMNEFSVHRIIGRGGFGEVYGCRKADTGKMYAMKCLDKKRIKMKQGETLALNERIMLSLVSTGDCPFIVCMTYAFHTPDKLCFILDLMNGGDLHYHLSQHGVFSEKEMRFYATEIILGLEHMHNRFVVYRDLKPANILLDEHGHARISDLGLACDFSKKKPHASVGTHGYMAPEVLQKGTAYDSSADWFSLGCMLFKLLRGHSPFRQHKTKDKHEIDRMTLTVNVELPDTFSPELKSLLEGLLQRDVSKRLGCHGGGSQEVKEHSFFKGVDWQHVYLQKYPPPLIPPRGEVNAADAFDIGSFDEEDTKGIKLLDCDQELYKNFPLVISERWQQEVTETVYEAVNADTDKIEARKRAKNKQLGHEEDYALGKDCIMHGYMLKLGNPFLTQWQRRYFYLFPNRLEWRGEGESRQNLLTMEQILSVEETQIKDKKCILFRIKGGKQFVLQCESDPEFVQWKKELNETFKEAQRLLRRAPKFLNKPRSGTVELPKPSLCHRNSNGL
T22 sequence (Q8IVH8 whole entry): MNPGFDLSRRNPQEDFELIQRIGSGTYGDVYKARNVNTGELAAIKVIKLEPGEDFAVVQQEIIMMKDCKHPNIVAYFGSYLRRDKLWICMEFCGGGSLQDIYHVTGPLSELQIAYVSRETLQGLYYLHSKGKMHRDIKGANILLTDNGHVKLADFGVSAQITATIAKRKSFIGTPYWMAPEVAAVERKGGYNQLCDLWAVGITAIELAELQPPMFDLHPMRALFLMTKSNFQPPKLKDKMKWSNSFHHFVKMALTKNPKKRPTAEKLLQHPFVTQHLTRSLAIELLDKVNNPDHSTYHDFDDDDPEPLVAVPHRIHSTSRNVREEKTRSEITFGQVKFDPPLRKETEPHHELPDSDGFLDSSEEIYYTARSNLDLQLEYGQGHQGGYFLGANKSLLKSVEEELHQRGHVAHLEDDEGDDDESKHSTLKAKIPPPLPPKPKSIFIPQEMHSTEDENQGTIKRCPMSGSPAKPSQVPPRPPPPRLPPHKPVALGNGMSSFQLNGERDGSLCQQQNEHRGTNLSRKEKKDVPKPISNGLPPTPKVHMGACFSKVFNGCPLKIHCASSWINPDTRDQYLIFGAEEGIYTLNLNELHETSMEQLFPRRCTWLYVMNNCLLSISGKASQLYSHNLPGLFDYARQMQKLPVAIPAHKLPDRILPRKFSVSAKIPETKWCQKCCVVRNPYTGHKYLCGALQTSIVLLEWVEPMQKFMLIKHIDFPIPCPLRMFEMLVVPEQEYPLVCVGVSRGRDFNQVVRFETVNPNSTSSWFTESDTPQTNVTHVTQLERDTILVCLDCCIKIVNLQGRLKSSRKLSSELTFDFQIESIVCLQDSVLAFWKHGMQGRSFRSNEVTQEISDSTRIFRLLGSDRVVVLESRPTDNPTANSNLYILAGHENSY
T9 sequence (P29322 28-1005): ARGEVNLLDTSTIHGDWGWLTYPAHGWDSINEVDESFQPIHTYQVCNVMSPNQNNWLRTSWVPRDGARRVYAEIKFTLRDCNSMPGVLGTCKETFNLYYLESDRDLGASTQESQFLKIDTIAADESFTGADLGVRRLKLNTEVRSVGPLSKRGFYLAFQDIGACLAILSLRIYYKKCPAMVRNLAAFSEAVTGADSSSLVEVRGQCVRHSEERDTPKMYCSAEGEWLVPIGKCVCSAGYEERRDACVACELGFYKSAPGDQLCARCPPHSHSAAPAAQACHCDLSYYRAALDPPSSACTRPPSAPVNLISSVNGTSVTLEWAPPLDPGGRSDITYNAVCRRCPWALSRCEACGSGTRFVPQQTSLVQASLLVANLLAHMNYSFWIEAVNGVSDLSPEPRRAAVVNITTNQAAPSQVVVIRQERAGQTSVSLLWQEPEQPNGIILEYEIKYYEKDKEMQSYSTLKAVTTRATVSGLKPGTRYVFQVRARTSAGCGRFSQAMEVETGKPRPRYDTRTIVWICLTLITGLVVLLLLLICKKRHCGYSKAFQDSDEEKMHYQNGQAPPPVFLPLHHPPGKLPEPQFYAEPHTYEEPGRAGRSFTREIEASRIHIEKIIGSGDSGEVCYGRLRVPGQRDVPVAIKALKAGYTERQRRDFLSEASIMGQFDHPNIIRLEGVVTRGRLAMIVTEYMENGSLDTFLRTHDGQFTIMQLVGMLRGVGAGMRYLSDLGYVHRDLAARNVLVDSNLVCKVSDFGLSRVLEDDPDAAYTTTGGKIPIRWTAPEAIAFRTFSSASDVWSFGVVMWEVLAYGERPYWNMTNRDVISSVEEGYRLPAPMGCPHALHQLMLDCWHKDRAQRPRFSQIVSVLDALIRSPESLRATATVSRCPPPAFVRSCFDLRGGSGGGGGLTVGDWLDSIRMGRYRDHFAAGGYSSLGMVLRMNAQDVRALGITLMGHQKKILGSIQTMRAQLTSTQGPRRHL
T14 sequence (P52564 whole entry): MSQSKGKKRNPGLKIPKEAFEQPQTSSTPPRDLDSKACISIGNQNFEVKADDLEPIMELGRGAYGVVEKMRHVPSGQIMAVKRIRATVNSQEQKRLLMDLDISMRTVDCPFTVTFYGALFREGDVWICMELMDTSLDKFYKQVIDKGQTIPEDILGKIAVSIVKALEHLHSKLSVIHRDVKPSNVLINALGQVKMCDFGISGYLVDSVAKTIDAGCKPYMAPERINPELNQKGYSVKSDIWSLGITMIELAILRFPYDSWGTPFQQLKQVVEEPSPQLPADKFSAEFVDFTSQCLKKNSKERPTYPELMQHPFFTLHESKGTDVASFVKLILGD

SMILES: CC(C)C(=O)N1CCN(c2ccc(NC(=O)c3cc4ccccc4o3)cc2Cl)CC1 [Compound 21]
- Percent Control [1]: 75%
- Percent Control [2]: 100%
- Percent Control [3]: 89%
- Percent Control [4]: 79%
- Percent Control [5]: 75%
- Percent Control [6]: 14%
- Percent Control [7]: 100%
- Percent Control [8]: 90%
- Percent Control [9]: 94%
- Percent Control [10]: 100%
- Percent Control [11]: 97%
- Percent Control [12]: 63%
- Percent Control [13]: 99%
- Percent Control [14]: 97%
- Percent Control [15]: 83%
- Percent Control [16]: 94%
- Percent Control [17]: 92%
- Percent Control [18]: 100%
- Percent Control [19]: 96%
- Percent Control [20]: 91%
- Percent Control [21]: 70%
- Percent Control [22]: 78%
- Percent Control [23]: 95%
- Percent Control [24]: 98%
- Percent Control [25]: 81%
- Percent Control [26]: 55%
